Measured values: patent publication US8637468B2, “Synthetic cholesterylamine-linker derivatives for agent delivery into cells” (The University of Kansas, priority 2009, dated 2014)
Read-outs that look alike come from different tables or passages of the source.

Key:
[1] = tested on: plasma membranes of living Jurkat lymphocytes; assay: Saturation binding of fluorescent probes to living Jurkat lymphocytes (flow cytometry); set-up: species or system human; settings: for Bmax (×10^5, 16° C.) / Bmax (×10^5, 37° C.) / Kd: media containing 10% FBS, free cholesterol (200 μM, 10% DMSO) as competitor; for binding to mammalian cells (affinity/efficacy, in words): high concentrations of serum (10%)
Experimental: Jurkat lymphocytes (human acute leukemia, ATCC #TIB-152) were cultivated in Roswell Park Memorial Institute (RPMI) 1640 medium supplemented with Fetal Bovine Serum (FBS, 10%), penicillin (100 units/mL), and streptomycin (100 μg/mL) in a humidified 5% CO2 incubator at 37° C. Media used for cell culture and all wash steps contained antibiotics and 10% FBS unless otherwise noted.
(§1) Cells were suspended at 300,000 cells/mL in RPMI media containing 10% FBS. Ezetimibe (100 μM; diluted 1:1000 into media from a 100 mM stock in DMSO; 0.1% final DMSO concentration), free cholesterol (200 μM; diluted 1:10 into media from a 2 mM stock in DMSO; 10% final DMSO concentration to enhance cholesterol solubility) or vehicle control (DMSO) was added in competition experiments. Cell suspensions containing the competitor or vehicle control were prepared as 1 mL aliquots in 1.5 mL eppindorf tubes. Fluorescent probes were added at concentrations from 0 nM to 2500 nM (diluted 1:1000 into media from stocks in DMSO). Once the probe was added and well mixed, the samples were split into three tubes each containing 330 μL. Cells were incubated at 16° C. for 10 min or 37° C. for 5 minutes to limit endocytosis. After this incubation, the samples were washed once with RPMI 1640 containing 0.5% FBS (to minimize efflux of the probe from the cell surface) and propidium iodide (3 μM). Samples were immediately analyzed by flow cytometry or confocal laser-scanning microscopy.
Populations of 10,000 Jurkat cells were analyzed for each sample using an Accuri C6 flow cytometer equipped with 488 nm and 640 nm solid-state lasers. Live cells were gated using both forward scattering (FSC) and side scattering (SSC) dot plots to identify cellular physical properties of size and granularity and propidium iodide to identify cells with compromised membranes. The average cellular fluorescence upon excitation at 488 nm was plotted against probe concentration, and the data analyzed as total binding (no competitor added) and a linear non-specific binding component (with cholesterol or ezetimibe as a specific competitor) to calculate specific binding curves. Using GraphPad Prism 5.0 software, these curves were analyzed with a one site with hill slope binding model to determine the relative apparent Kd and Bmax values listed in Table 1 below.
Using free cholesterol (compound 1, 200 μM, 10% DMSO) as a competitor, we quantified the relative affinities (Kd, app) and efficacies (Bmax) of compounds 4-12 in saturation binding experiments at both 16° C. (to limit endocytosis) and 37° C. (FIG. 4 and Table 1). These experiments confirmed the combined importance the N-alkyl substituent of cholesterylamine, an anionic functional group, and a spacer residue such as β-alanine to engender high affinity binding to cell surfaces and facilitate subsequent endocytosis.

Jurkat lymphocytes = assay: Confocal laser scanning microscopy of living Jurkat lymphocytes treated with fluorescent probes; format: cell-based, human; settings: 2 μM, 10% serum
Experimental: FIG. 3 includes micrographs showing differential interference contrast (DIC) and confocal laser scanning microscopy of living Jurkat lymphocytes in media containing 10% serum treated at 37° C. with fluorescent compound 4 (Panels A-E), compound 6 (F-G), and compound 12 (H-I) for 5 min or 1 h (2 μM). In C and D, ezetimibe (compound 3, 100 μM in 0.1% DMSO) and cholesterol (compound 1, 200 μM in 10% DMSO) were included as competitors to block uptake via cell surface receptors.
An inverted Leica TCS SPE confocal laser-scanning microscope fitted with a Leica 63× oil-immersion objective was employed for imaging. Fluorescent probes were excited with a 488 nm solid-state laser and emitted photons were collected from 495-600 nm. Propidium iodide, used to counterstain dead cells red fluorescent, was excited with a 532 nm solid-state laser and emitted photons were collected from 650-800 nm. To image living cells, 50 μL of cells in media was pipetted to form a small droplet in the center of a coverslip fitted with a press-to-seal silicone isolator (Invitrogen). A microscope slide was added to the top of the coverslip to create a column of media containing living cells. To allow accurate comparisons of differences in cellular fluorescence, laser power and PMT gain settings were identical for all samples.
as §1, with “Once the probe was added and well mixed, the samples were split into three tubes each containing 330 μL. Cells were incubated at 16° C. for 10 min or 37° C. for 5 minutes to limit endocytosis. After this incubation, the samples were washed once with RPMI 1640 containing 0.5% FBS (to minimize efflux of the probe from the cell surface) and propidium iodide (3 μM).” left out

[2] = 16° C., 10 min, read-out: Kd, app (nM, 16° C.)
[3] = 37° C., 5 min, read-out: Kd, app (nM, 37° C.)

Question: For `Cc1cc(C(=O)N[C@@H](CCC(=O)O)C(=O)NCCC(=O)NCCC(=O)OC2CC[C@@]3(C)C(=CC[C@H]4[C@@H]5CC[C@H]([C@H](C)CCCC(C)C)[C@@]5(C)CC[C@@H]43)C2)ccc1-c1c2cc(F)c(=O)cc-2oc2cc(O)c(F)cc12` (stereo partly drawn) [compound 11, (4S)-4-(4-(2,7-difluoro-6-hydroxy-3-oxo-3H-xanthen-9-yl)-3-methylbenzamido)-5-((3-((3-{[3-cholester-3-yl]oxy}3-oxopropyl)amino)-3-oxopropyl)amino)-5-oxopentanoic acid], which “Bmax (×10^5, 16° C.)” value ([1]; 16° C., 10 min) is on record?
Answer: The value was “NC^b (Not calculated due to low efficacy (Bmax<0.4×105))”.

Question: And the “Bmax (×10^5, 37° C.)” value ([1]; 37° C., 5 min)?
Answer: Its value is “NC^b (Not calculated due to low efficacy (Bmax<0.4×105))”.

Question: What does the source list for `Cc1cc(C(=O)N[C@@H](CCC(=O)O)C(=O)NCCC(=O)NCCCO[C@H]2CC[C@@]3(C)C(=CC[C@H]4[C@@H]5CC[C@H]([C@H](C)CCCC(C)C)[C@@]5(C)CC[C@@H]43)C2)ccc1-c1c2cc(F)c(=O)cc-2oc2cc(O)c(F)cc12` [compound 9, (4S)-5-{[3-({3-[3β-Cholest-5-en-3-yloxy]propyl}amino)-3-oxopropyl]amino}-4-{[4-(2,7-difluoro-6-hydroxy-3-oxo-3H-xanthen-9-yl)-3-methylbenzoyl]amino}-5-oxopentanoic acid]?
Answer: Bmax (×10^5, 16° C.) ([1]; 16° C., 10 min): 1.68 ± 0.26 ×10^5; Kd [1, 2]: 954 ± 285 nM; melting point: 192 to 194 °C

Question: Which “Bmax (×10^5, 16° C.)” value ([1]; 16° C., 10 min) does the source give for `CC[C@H](CC[C@@H](C)[C@H]1CC[C@H]2[C@@H]3CC=C4C[C@@H](NCCCNC(=O)CCNC(=O)[C@H](CCC(=O)O)NC(=O)c5ccc(-c6c7cc(F)c(=O)cc-7oc7cc(O)c(F)cc67)c(C)c5)CC[C@]4(C)[C@H]3CC[C@]12C)C(C)C` [compound 8, (4S)-5-{[3-({3-[3β-Sitost-5-en-3-ylamino]propyl}amino)-3-oxopropyl]amino}-4-{[4-(2,7-difluoro-6-hydroxy-3-oxo-3H-xanthen-9-yl)-3-methylbenzoyl]amino}-5-oxopentanoic acid] here?
Answer: Its value is 0.73 ± 0.03 ×10^5.

Question: And the Kd [1, 2]?
Answer: Its Kd is 286 ± 27 nM.

Question: What about the “Bmax (×10^5, 37° C.)” value ([1]; 37° C., 5 min) of the same molecule?
Answer: The value was 1.3 ± 0.29 ×10^5.

Question: What about the Kd [1, 3] of the same molecule?
Answer: The Kd was 435 ± 221 nM.

Question: What does the source list for `Cc1cc(C(=O)N[C@@H](CCC(=O)O)C(=O)NCCC(=O)NCCC(=O)N[C@H]2CC[C@@]3(C)C(=CC[C@H]4[C@@H]5CC[C@H]([C@H](C)CCCC(C)C)[C@@]5(C)CC[C@@H]43)C2)ccc1-c1c2cc(F)c(=O)cc-2oc2cc(O)c(F)cc12` [compound 10, (4S)-4-(4-(2,7-difluoro-6-hydroxy-3-oxo-3H-xanthen-9-yl)-3-methylbenzamido)-5-((3-((3-{[3β-cholest-5-en-3-yl]amino}-3-oxopropyl)amino)-3-oxopropyl)amino)-5-oxopentanoic acid]?
Answer: Bmax (×10^5, 16° C.) ([1]; 16° C., 10 min): 1.86 ± 0.39 ×10^5; Kd [1, 2]: 786 ± 358 nM; Bmax (×10^5, 37° C.) ([1]; 37° C., 5 min): 2.2 ± 0.30 ×10^5; Kd [1, 3]: 639 ± 190 nM; melting point: 192 to 194 °C

Question: Which “Bmax (×10^5, 37° C.)” value ([1]; 37° C., 5 min) does the source give for `Cc1cc(C(=O)N[C@@H](CCC(=O)O)C(=O)N[C@@H](CCC(=O)O)C(=O)NCCCN[C@H]2CC[C@@]3(C)C(=CC[C@H]4[C@@H]5CC[C@H]([C@H](C)CCCC(C)C)[C@@]5(C)CC[C@@H]43)C2)ccc1-c1c2cc(F)c(=O)cc-2oc2cc(O)c(F)cc12` [compound 7, (4S)-5-(((2S)-4-carboxy-1-((3-[3β-cholest-5-en-3-ylamino]propyl)amino)-1-oxobutan-2-yl)amino)-4-(4-(2,7-difluoro-6-hydroxy-3-oxo-3H-xanthen-9-yl)-3-methylbenzamido)-5-oxopentanoic acid] here?
Answer: The value was 3.2 ± 1.3 ×10^5.

Question: And the Kd [1, 3]?
Answer: Its Kd is 1540 ± 1140 nM.

Question: What about the melting point of the same molecule?
Answer: The melting point was 175 to 178 °C.

Question: What does the source list for `Cc1cc(C(=O)N[C@@H](CCC(=O)O)C(=O)NCCC(=O)NCCCN[C@H]2CC[C@@]3(C)C(=CC[C@H]4[C@@H]5CC[C@H]([C@H](C)CCCC(C)C)[C@@]5(C)CC[C@@H]43)C2)ccc1-c1c2cc(F)c(=O)cc-2oc2cc(O)c(F)cc12` [compound 4, (4S)-5-{[3-({3-[3β-Cholest-5-en-3-ylamino]propyl}amino)-3-oxopropyl]amino}-4-{[4-(2,7-difluoro-6-hydroxy-3-oxo-3H-xanthen-9-yl)-3-methylbenzoyl]amino}-5-oxopentanoic acid]?
Answer: Bmax (×10^5, 16° C.) ([1]; 16° C., 10 min): 2.31 ± 0.14 ×10^5; Kd [1, 2]: 403 ± 49 nM; Bmax (×10^5, 37° C.) ([1]; 37° C., 5 min): 2.54 ± 0.12 ×10^5; Kd [1, 3]: 344 ± 32 nM; binding to mammalian cells (affinity/efficacy, in words) [1]: high affinity/efficacy; fluorescent staining of cells (Jurkat lymphocytes; 5 minutes at 37° C.): robust fluorescent staining of cellular plasma membranes; cellular binding, uptake and localization (Jurkat lymphocytes; after 1 hour, 37° C.): enhanced cellular binding, uptake of the probe, and localization of compound 4 in transferrin-positive early/recycling endosomes

Question: For `Cc1cc(C(=O)N[C@@H](CCC(=O)O)C(=O)NCC(=O)NCCNC(=O)OC2CC[C@@]3(C)C(=CC[C@H]4[C@@H]5CC[C@H]([C@H](C)CCCC(C)C)[C@@]5(C)CC[C@@H]43)C2)ccc1-c1c2cc(F)c(=O)cc-2oc2cc(O)c(F)cc12` (stereo partly drawn) [compound 12, (4S)-4-(4-(2,7-difluoro-6-hydroxy-3-oxo-3H-xanthen-9-yl)-3-methylbenzamido)-5-(3-((3-((({[3-cholester-3-y]oxy}carbonyl)amino)ethyl)amino)-2-oxoethyl)amino)-5-oxopentanoic acid], which “Bmax (×10^5, 16° C.)” value ([1]; 16° C., 10 min) is on record?
Answer: Its value is “NC^b (Not calculated due to low efficacy (Bmax<0.4×105))”.

Question: And the “Bmax (×10^5, 37° C.)” value ([1]; 37° C., 5 min)?
Answer: The value was “NC^b (Not calculated due to low efficacy (Bmax<0.4×105))”.

Question: What about the “cellular binding and cellular uptake compared with compound 4” value (Jurkat lymphocytes; 5 min or 1 h, 37° C.) of the same molecule?
Answer: Its value is “substantially lower cellular binding and cellular uptake compared with compound 4”.

Question: Which “Bmax (×10^5, 16° C.)” value ([1]; 16° C., 10 min) does the source give for `Cc1cc(C(=O)N[C@@H](CCC(=O)O)C(=O)N[C@@H](CCC(=O)O)C(=O)NCCC(=O)NCCCN[C@H]2CC[C@@]3(C)C(=CC[C@H]4[C@@H]5CC[C@H]([C@H](C)CCCC(C)C)[C@@]5(C)CC[C@@H]43)C2)ccc1-c1c2cc(F)c(=O)cc-2oc2cc(O)c(F)cc12` [compound 5, (4S)-5-{[(1S)-3-Carboxy-1-({[3-({3-[3β-cholest-5-en-3-ylamino]propyl}amino)-3-oxopropyl]amino}carbonyl)propyl]amino}-4-{[4-(2,7-difluoro-6-hydroxy-3-oxo-3H-xanthen-9-yl)-3-methylbenzoyl]amino}-5-oxopentanoic acid] here?
Answer: Its value is 3.93 ± 0.64 ×10^5.

Question: And the Kd [1, 2]?
Answer: Its Kd is 767 ± 244 nM.

Question: What about the “Bmax (×10^5, 37° C.)” value ([1]; 37° C., 5 min) of the same molecule?
Answer: Its value is 3.01 ± 0.26 ×10^5.

Question: What about the Kd [1, 3] of the same molecule?
Answer: Its Kd is 449 ± 74 nM.

Question: What about the “binding to mammalian cells (affinity/efficacy, in words)” value [1] of the same molecule?
Answer: Its value is “high affinity/efficacy”.

Question: With `Cc1cc(C(=O)NCC(=O)NCCC(=O)NCCCN[C@H]2CC[C@@]3(C)C(=CC[C@H]4[C@@H]5CC[C@H]([C@H](C)CCCC(C)C)[C@@]5(C)CC[C@@H]43)C2)ccc1-c1c2cc(F)c(=O)cc-2oc2cc(O)c(F)cc12` [compound 6, N-(2-{[3-({3-[3β-Cholest-5-en-3-ylamino]propyl}amino)-3-oxopropyl]amino}-2-oxoethyl)-4-(2,7-difluoro-6-hydroxy-3-oxo-3H-xanthen-9-yl)-3-methylbenzamide] as the molecule, how does the “Bmax (×10^5, 37° C.)” value ([1]; 37° C., 5 min) read?
Answer: Its value is “NC^b (Not calculated due to low efficacy (Bmax<0.4×105))”.

Question: And the melting point?
Answer: The melting point was 200 to 203 °C.
